Measurements from ChEMBL document CHEMBL4627296, “Enhanced cellular uptake efficiency of DCM probes or SN38 conjugating with phenylboronic acids” (Bioorg Med Chem, 2020).
pIC50: −log10 of the molar value.

Key:
[1] = Drug uptake in human HepG2 cells at 10 uM measured after 1 hr by fluorescence analysis; assay type: ADME, cell-based; conditions: hepg2, 1 h
[2] = Drug uptake in human HepG2 cells assessed as mean fluorescence intensity at 10 uM measured after 1 hr by flow cytometry analysis (reference value: 2.74); assay type: ADME, cell-based; conditions: hepg2, 1 h
[3] = Drug uptake in human A549 cells at 10 uM measured after 24 hrs by confocal laser scanning microscopic analysis; assay type: ADME, cell-based; conditions: a549, 24 h
[4] = Drug uptake in human HepG2 cells at 10 uM measured after 24 hrs by confocal laser scanning microscopic analysis; assay type: ADME, cell-based; conditions: hepg2, 24 h
[5] = test system: HepG2; experiment: Antiproliferative activity against human HepG2 cells assessed as inhibition of cell proliferation after 72 hrs by MTT assay; assay type: functional, cell-based; conditions: HepG2, 72 h
[6] = test system: HepG2; experiment: Potency index, ratio of compound uptake to irinotecan uptake in human HepG2 cells at 10 uM measured after 24 hrs by microplate reader analysis; assay type: ADME, cell-based; conditions: hepg2, 24 h
[7] = Drug metabolism in human HepG2 cells assessed as SN38 release at 10 uM measured after 24 hrs by microplate reader analysis; assay type: ADME, cell-based; conditions: hepg2, 24 h
[8] = Solubility of the compound in water; assay type: physicochemical; conditions: buffer

CCN(CCn1cc(COCCOCCOCCOCCNC(=O)Nc2ccc3c(c2)B(O)OC3)nn1)c1ccc(/C=C/C2=CC(=C(C#N)C#N)c3ccccc3O2)cc1
Drug uptake [1]: Active
Flu intensity [2]: 86.91

CCc1c2c(nc3ccc(OC(=O)N4CCC(CNC(=O)c5ccc(B(O)O)cc5)CC4)cc13)-c1cc3c(c(=O)n1C2)COC(=O)[C@]3(O)CC
Drug uptake [3]: Active
Drug uptake [4]: Active
pIC50 [5]: 5.80
Ratio [6]: 7
Drug metabolism [7]: Metabolite_Notdetected

CCN(CCn1cc(COCCOCCOCCOCCO)nn1)c1ccc(/C=C/C2=CC(=C(C#N)C#N)c3ccccc3O2)cc1
Drug uptake [1]: Active
Flu intensity [2]: 64.89
solubility [8]: Soluble

CCN(CCn1cc(COCCOCCOCCOCCNC(=O)c2cccc([N+](=O)[O-])c2)nn1)c1ccc(/C=C/C2=CC(=C(C#N)C#N)c3ccccc3O2)cc1
Drug uptake [1]: Active
Flu intensity [2]: 28.12
solubility [8]: Soluble

CCc1c2c(nc3ccc(OC(=O)N4CCC(N5CCCCC5)CC4)cc13)-c1cc3c(c(=O)n1C2)COC(=O)[C@]3(O)CC
pIC50 [5]: 6.02

CCc1c2c(nc3ccc(OC(=O)N4CCC(CNC(=O)Nc5ccc6c(c5)B(O)OC6)CC4)cc13)-c1cc3c(c(=O)n1C2)COC(=O)[C@]3(O)CC
Drug uptake [3]: Active
Drug uptake [4]: Active
pIC50 [5]: 6.08
Ratio [6]: 3
Drug metabolism [7]: Metabolite_Notdetected

CCN(CCn1cc(COCCOCCOCCOCCNC(=O)c2cc(B(O)O)cc([N+](=O)[O-])c2)nn1)c1ccc(/C=C/C2=CC(=C(C#N)C#N)c3ccccc3O2)cc1
Drug uptake [1]: Active
Flu intensity [2]: 11.83

CCN(CCn1cc(COCCOCCOCCOCCNC(=O)c2ccc(B(O)O)cc2)nn1)c1ccc(/C=C/C2=CC(=C(C#N)C#N)c3ccccc3O2)cc1
Drug uptake [1]: Active
Flu intensity [2]: 99.42
